According to patent US4634704A, “Anti-allergic five membered heterocyclic ring containing N-(bicyclic heterocycyl)-4-piperidinamines” (Janssen Pharmaceutica, N.V., priority 1984, dated 1987):
Where a name gives a salt, the structure may show the parent alone.

What follows are compounds tested on compound 48/80-induced lethality (assay: Protection of rats from compound 48/80-induced lethality). Conditions: Rattus norvegicus, 4 h, read-out: compound 48/80 lethality test in rats-ED50, dose protecting 50% of animals; subcutaneous or oral, 1 h before compound 48/80 0.5 mg/kg i.v.; survival after 4 h.
Type: in vivo, rat (male, inbred Wistar strain)
Description: Protection of rats from compound 48/80-induced lethality.
The protection from compound 48/80-induced lethal circulatory collapse appears to be a simple way of evaluating quantitatively the antihistaminic activity of test compounds. Male rats of an inbred Wistar strain, weighing 240-260 g were used in the experiment. After overnight starvation the rats were transferred to conditioned laboratories (temp.=21±1° C., relative humidity=65±5%).
The rats were treated subcutaneously or orally with a test compound or with the solvent (NaCl solution, 0.9%). […] Survival after 4 hours is therefore considered to be a safe criterion of a protective effect of drug administration.
The ED50 -values of the compounds of formula (I) are listed in the first column of table 1. Said ED50 -values are the values in mg/kg body weight at which the tested compounds protect 50% of the tested animals against compound 48/80-induced lethality.
For `Fc1ccc(Cn2c(NC3CCN(C4CCN(c5nccs5)CC4)CC3)nc3ccccc32)cc1` [Compound 52], the ED50 was 1.25 mg/kg. Compound `CN(CCN1CCC(Nc2nc3ccccc3n2Cc2ccc(F)cc2)CC1)c1nccs1` [Compound 50, 1-[(4-fluorophenyl)methyl]-N-[1-[2-[methyl(2-thiazolyl)amino]ethyl]-4-piperidinyl]-1H-benzimidazol-2-amine] has an ED50 of 0.08 mg/kg. Compound `Nc1nc(CCN2CCC(Nc3nc4ccccc4n3Cc3ccc(F)cc3)CC2)cs1` [Compound 91, N-[1-[2-(2-amino-4-thiazolyl)ethyl]-4-piperidinyl]-1-[(4-fluorophenyl)methyl]-1H-benzimidazol-2-amine] has an ED50 of 0.08 mg/kg. For `Fc1ccc(Cn2c(NC3CCN(CCOc4nccs4)CC3)nc3ccccc32)cc1` [Compound 72, 1-[(4-fluorophenyl)methyl]-N-[1-[2-(2-thiazolyloxy)ethyl]-4-piperidinyl]-1H-benzimidazol-2-amine], the ED50 was 0.08 mg/kg. With `CC(C)n1ccnc1NCCN1CCC(Nc2nc3ccccc3n2Cc2ccc(F)cc2)CC1.O` [Compound 81, 1-[(4-fluorophenyl)methyl]-N-[1-[2-[[1-(1-methylethyl)-1H-imidazol-2-yl]amino]-ethyl]-4-piperidinyl]-1H-benzimidazol-2-amine mono hydrate] the ED50 was 0.04 mg/kg. `Cn1cnc([N+](=O)[O-])c1NCCN1CCC(Nc2nc3ccccc3n2Cc2ccc(F)cc2)CC1` [Compound 12] gave an ED50 of 0.31 mg/kg. For `Cc1ccc(Cn2c(NC3CCN(CCNc4nccs4)CC3)nc3ccccc32)cc1` [Compound 62], the ED50 was 0.16 mg/kg. `Fc1ccc(Cn2c(NC3CCN(CCNc4nccs4)CC3)nc3cccnc32)cc1` [Compound 17] was tested, and the ED50 was 0.02 mg/kg. With `CNc1nc(CCN2CCC(Nc3nc4ccccc4n3Cc3ccc(F)cc3)CC2)cs1` [Compound 98, 1-[(4-fluorophenyl)methyl]-N-[1-[2-[2-(methylamino)-4-thiazolyl]-ethyl]-4-piperidinyl]-1H-benzimidazol-2-amine] the ED50 was 0.16 mg/kg. Compound `Fc1ccc(Cn2ccnc2NCCN2CCC(Nc3nc4ccccc4n3Cc3ccc(F)cc3)CC2)cc1` [Compound 82, 1-[(4-fluorophenyl)methyl]-N-[1-[2-[[1-[(4-fluorophenyl)methyl]-1H-imidazol-2-yl]amino]ethyl]-4-piperidinyl]-1H-benzimidazol-2-amine cyclohexanesulfamate(1:3).dihydrate] has an ED50 of 0.16 mg/kg. With `COc1ccc(Cn2c(NC3CCN(CCNc4nccs4)CC3)nc3ccccc32)cc1` [Compound 24] the ED50 was 0.31 mg/kg. Compound `Fc1ccc(Cn2c(NC3CCN(CCCCNc4nccs4)CC3)nc3ccccc32)cc1` [Compound 53] has an ED50 of 0.31 mg/kg. Compound `N=C(NCCN1CCC(Nc2nc3ccccc3n2Cc2ccc(F)cc2)CC1)Nc1nc2ccccc2[nH]1` [Compound 66, N-(1H-benzimidazol-2-yl)-N'-[2-[4-[[1-[(4-fluorophenyl)methyl]-1H-benzimidazol-2-yl]amino]-1-piperidinyl]ethyl]guanidine trihydrochloride.dihydrate] has an ED50 of 0.31 mg/kg. In the case of `Fc1ccc(Cn2c(NC3CCN(CCc4csc(-c5ccccc5)n4)CC3)nc3ccccc32)cc1` [Compound 92, 1-[(4-fluorophenyl)methyl]-N-[1-[2-(2-phenyl-4-thiazolylethyl]-4-piperidinyl]-1H-benzimidazol-2-aminedihydrochloride monohydrate], the ED50 was 0.63 mg/kg. In the case of `c1coc(Cn2c(NC3CCN(CCNc4nccs4)CC3)nc3cccnc32)c1` [Compound 56], the ED50 was 0.01 mg/kg. `Cn1c(C(=O)NCCN2CCC(Nc3nc4ccccc4n3Cc3ccc(F)cc3)CC2)cc2ccccc21` [Compound 78, N-[2-[4-[[1-[(4-fluorophenyl)methyl]-1H-benzimidazol-2-yl]amino]-1piperidinyl]ethyl]-1-methyl-1H-indole-2-carboxamide] was tested, and the ED50 was 0.16 mg/kg. Work on `CCn1nnnc1OCCN1CCC(Nc2nc3ccccc3n2Cc2ccc(F)cc2)CC1` [Compound 10, N-[1-[2-[(1-ethyl-1H-tetrazol-5-yl)oxy]ethyl]-4-piperidinyl]-1-[(4-fluorophenyl)methyl]-1H-benzimidazol-2-amine (E)-2-butenedioate (2:5)] yielded an ED50 of 0.04 mg/kg. `CCn1nnnc1SCCN1CCC(Nc2nc3ccccc3n2Cc2ccc(F)cc2)CC1` [Compound 74, N-[1-[2-[(1-ethyl-1H-tetrazol-5-yl)thio]ethyl]-4-piperidinyl]-1-[(4-fluorophenyl)methyl]-1H-benzimidazol-2-amine] was tested, and the ED50 was 0.08 mg/kg. For `Fc1ccc(Cn2c(NC3CCN(CCCNc4nccs4)CC3)nc3ccccc32)cc1` [Compound 20], the ED50 was 0.16 mg/kg. In the case of `Fc1ccc(Cn2c(NC3CCN(CCNc4nc5ccccc5s4)CC3)nc3ccccc32)cc1` [Compound 19], the ED50 was 0.31 mg/kg. `Fc1ccc(Cn2c(NC3CCN(CCSc4nc5ccccc5o4)CC3)nc3ccccc32)cc1` [Compound 73, N-[1-[2-[(2-benzoxazolyl)thio]ethyl]-4-piperidinyl]-1-[(4-fluorophenyl)methyl]-1H-benzimidazol-2-amine] gave an ED50 of 0.63 mg/kg. With `Fc1ccc(Cn2c(NC3CCN(CCNc4nccs4)CC3)nc3ccncc32)cc1` [Compound 23] the ED50 was 0.08 mg/kg. Compound `O=C(NCCN1CCC(Nc2nc3ccccc3n2Cc2ccc(F)cc2)CC1)c1cc2ccccc2[nH]1` [Compound 76, N-[2-[4-[[1-[(4-fluorophenyl)methyl]-1H-benzimidazol-2-yl]amino]-1-piperidinyl]ethyl]-1H-indole-2-carboxamide] has an ED50 of 0.16 mg/kg. Work on `Fc1ccc(Cn2c(NC3CCN(CCOc4nc5ccccc5s4)CC3)nc3ccccc32)cc1` [Compound 67, N-[1-[2-(2-benzothiazolyloxy)ethyl]-4-piperidinyl]-1-[(4-fluorophenyl)methyl]-1H-benzimidazol-2-amine] yielded an ED50 of 0.63 mg/kg. Compound `CCOC(=O)N(CCN1CCC(Nc2nc3ccccc3n2Cc2ccc(F)cc2)CC1)c1nccs1` [Compound 101, ethyl[2-[4-[[1-[(4-fluorophenyl)methyl]-1H-benzimidazol-2-yl]amino]-1-piperidinyl]ethyl](2-thiazolyl)carbamate] has an ED50 of 0.31 mg/kg. `O=[N+]([O-])c1cnc(NCCN2CCC(Nc3nc4ccccc4n3Cc3ccc(F)cc3)CC2)s1` [Compound 32] was tested, and the ED50 was 0.63 mg/kg. For `CNC(=S)N(CCN1CCC(Nc2nc3ccccc3n2Cc2ccc(F)cc2)CC1)c1nccs1` [Compound 104, N-[2-[4-[[1-[(4-fluorophenyl)methyl]-1H-benzimidazol-2-yl]amino]-1-piperidinyl]ethyl]-N'-methyl-N-(2-thiazolyl)thiourea], the ED50 was 0.16 mg/kg. For `CCc1nnc(NCCN2CCC(Nc3nc4ccccc4n3Cc3ccc(F)cc3)CC2)s1` [Compound 33], the ED50 was 0.16 mg/kg. Compound `O=C(Cc1c[nH]c2ccccc12)NCCN1CCC(Nc2nc3ccccc3n2Cc2ccc(F)cc2)CC1` [Compound 77, N-[2-[4-[[1-[(4-fluorophenyl)methyl]-1H-benzimidazol-2-yl]amino]-1-piperidinyl]ethyl]-1H-indol-3-acetamide] has an ED50 of 0.16 mg/kg. Compound `Fc1ccc(Cn2c(NC3CCN(CCNc4nccn4-c4ncccn4)CC3)nc3ccccc32)cc1` [Compound 105] has an ED50 of 0.16 mg/kg. Work on `CN(c1nc2ccccc2n1Cc1ccc(F)cc1)C1CCN(CCNc2nccs2)CC1` [Compound 26] yielded an ED50 of 0.02 mg/kg. In the case of `Nc1ccc(Cn2c(NC3CCN(CCNc4nccs4)CC3)nc3ccccc32)cc1` [Compound 35], the ED50 was 0.31 mg/kg. With `c1ccc(Cn2c(NC3CCN(CCNc4nccs4)CC3)nc3ccccc32)nc1` [Compound 27] the ED50 was 0.04 mg/kg. In the case of `O=[N+]([O-])c1ccc(Cn2c(NC3CCN(CCNc4nccs4)CC3)nc3ccccc32)cc1` [Compound 43], the ED50 was 0.31 mg/kg. For `c1ccc(Cn2c(NC3CCN(CCNc4nccs4)CC3)nc3cccnc32)nc1` [Compound 57], the ED50 was 0.005 mg/kg. `CC(c1ccc(Cl)cc1)n1ccnc1NCCN1CCC(Nc2nc3ccccc3n2Cc2ccc(F)cc2)CC1` (centres unmarked) [Compound 106, N-[1-[2-[[1-[1-(4-chlorophenyl)ethyl]-1H-imidazol-2-yl]amino]ethyl]-4-piperidinyl]-1-[(4-fluorophenyl)methyl]-1H-benzimidazol-2-amine cyclohexanesulfamate(1:3).dihydrate] showed an ED50 of 0.63 mg/kg. `Fc1ccc(Cn2c(NC3CCN(Cc4nc5ccccc5[nH]4)CC3)nc3ccccc32)cc1.O` [Compound 2, N-[1-(1H-benzimidazol-2-ylmethyl)-4-piperidinyl]-1-(4fluorophenylmethyl)-1H-benzimidazol-2-amine monohydrate] was tested, and the ED50 was 0.63 mg/kg.

Same assay, conditions: dose protecting 50% of animals; subcutaneous or oral, 1 h before compound 48/80 0.5 mg/kg i.v.; survival after 4 h; 0.5 mg/kg, 240 min
`Fc1ccc(Cn2c(NC3CCN(CCNc4nccs4)CC3)nc3ccccc32)cc1` [Compound 16] was tested, and the “compound 48/80 lethality test in rats-ED50” value was 0.08 mg/kg body weight.

Each compound was assayed on effects of serotonin in the gastric lesion test (assay: Antagonistic activity on the effects of serotonin in the gastric lesion test (lesions induced by compound 48/80)). Conditions: Rattus norvegicus; read-out: gastric lesion test ED50.
Type: in vivo, rat (male, Wistar inbred strain)
Text: The compounds of formula (I) and the pharmaceutically acceptable acid addition salts thereof are also potent serotonin-antagonists. The potency of the subject compounds as serotonin-antagonists is clearly evidenced by the results obtained in the following tests wherein the antagonistic activity of the subject compounds on the effect of serotonin is examined.
Antagonistic activity on the effects of serotonin in the gastric lesion test.
The shock, followed by dead, can be avoided if the rats are pretreated with a classical H 1 antagonist.
Male rats of a Wistar inbred strain, weighing 220-250 g, were starved overnight, water being available ad libitum. The test compounds were administered orally as a solution or as a suspension in aqueous medium. A control rat and a "blank" rat received the test compound. One hour later 5-[4-(diphenylmethyl)-1-piperazinylmethyl]-1-methyl-1H-benzimidazole-2-methanol was administered subcutaneously to all rats at the dose of 2.5 mg/kg.
Four hours after the intravenous injection of compound 48/80, the rats were decapitated and the stomachs were removed. Subsequently the stomachs were inspected for distension and contents (blood, fluid, food) and thoroughly rinsed. The macroscopic lesions were scored from 0 to +++, 0 corresponding to the complete absence of visible lesions and the highest score corresponding to reddish rough patches covering more than half the glandular area.
In the case of `Fc1ccc(Cn2c(NC3CCN(C4CCN(c5nccs5)CC4)CC3)nc3ccccc32)cc1` [Compound 52], the ED50 was 0.63 mg/kg. In the case of `Fc1ccc(Cn2c(NC3CCN(CCOc4nccs4)CC3)nc3ccccc32)cc1` [Compound 72, 1-[(4-fluorophenyl)methyl]-N-[1-[2-(2-thiazolyloxy)ethyl]-4-piperidinyl]-1H-benzimidazol-2-amine], the ED50 was 0.63 mg/kg. `CC(C)n1ccnc1NCCN1CCC(Nc2nc3ccccc3n2Cc2ccc(F)cc2)CC1.O` [Compound 81, 1-[(4-fluorophenyl)methyl]-N-[1-[2-[[1-(1-methylethyl)-1H-imidazol-2-yl]amino]-ethyl]-4-piperidinyl]-1H-benzimidazol-2-amine mono hydrate] was tested, and the ED50 was 0.31 mg/kg. With `Cc1ccc(Cn2c(NC3CCN(CCNc4nccs4)CC3)nc3ccccc32)cc1` [Compound 62] the ED50 was 0.63 mg/kg. In the case of `Fc1ccc(Cn2c(NC3CCN(CCNc4nccs4)CC3)nc3cccnc32)cc1` [Compound 17], the ED50 was 0.16 mg/kg. Compound `CNc1nc(CCN2CCC(Nc3nc4ccccc4n3Cc3ccc(F)cc3)CC2)cs1` [Compound 98, 1-[(4-fluorophenyl)methyl]-N-[1-[2-[2-(methylamino)-4-thiazolyl]-ethyl]-4-piperidinyl]-1H-benzimidazol-2-amine] has an ED50 of 0.16 mg/kg.
